Data set [1] addresses T1, microsomal epoxide hydrolase (Homo sapiens, UniProt P07099).
T1 sequence (P07099 1-455): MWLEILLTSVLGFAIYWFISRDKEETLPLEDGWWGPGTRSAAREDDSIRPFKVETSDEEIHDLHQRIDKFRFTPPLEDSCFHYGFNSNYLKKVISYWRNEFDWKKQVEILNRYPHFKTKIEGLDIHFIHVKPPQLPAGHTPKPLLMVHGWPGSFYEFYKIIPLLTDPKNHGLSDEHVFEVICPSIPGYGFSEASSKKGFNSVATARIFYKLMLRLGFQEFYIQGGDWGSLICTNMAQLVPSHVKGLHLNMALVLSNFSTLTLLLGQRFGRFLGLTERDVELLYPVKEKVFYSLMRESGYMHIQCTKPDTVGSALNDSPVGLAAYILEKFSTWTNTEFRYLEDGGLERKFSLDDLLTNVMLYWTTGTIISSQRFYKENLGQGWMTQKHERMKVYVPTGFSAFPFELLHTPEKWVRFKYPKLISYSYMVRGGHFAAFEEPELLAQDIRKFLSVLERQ
Put plainly: Microsomal epoxide hydrolase inhibitor studies. The format is in vitro ADME.

A short description of data set [2]: Metabolite identification in dog bile after administration of parent compound. The format is in vivo, beagle dogs. The note with it: dog, after 5.0 mg/kg oral administration of parent.
Data set [3] in a line: Metabolite identification, human liver cytosol incubation of parent compound. The format is in vitro ADME. Conditions: parent incubated in human liver cytosol. The method, then: Cytosol: 1-{2-[5-(3-Methyl-oxetan-3-ylmethoxy)-benzoimidazol-1-yl]-quinolin-8-yl}-piperidin-4-ylamine (10 μM) was incubated and prepared for analysis. Cryopreserved human liver cytosol from Tissue Transformation Technologies Inc., Edison, N.J., (lot: HHC-0255, ˜20 mg/mL) and dog liver cytosol (˜35 mg/mL) were thawed on ice immediately before the incubation. The cytosol was diluted 10-fold in 100 mM potassium phosphate buffer (pH 7.4) before addition of 1-{2-[5-(3-Methyl-oxetan-3-ylmethoxy)-benzoimidazol-1-yl]-quinolin-8-yl}-piperidin-4-ylamine (final concentration […]) for a final incubation volume of 2 mL. Samples were incubated for one hour in a 37° C. water bath, then quenched with two volumes of acetonitrile. Samples were vortexed and subsequently centrifuged at 3000 rpm. Samples were prepared for analysis by centrifugation at 3000 rpm to pellet the precipitated proteins and by evaporating the supernatant to dryness. The samples were reconstituted in 300 μL 50/50 10 mM ammonium formate, pH 3.0/acetonitrile. A 10 μL reconstituted aliquot was analyzed by LC/MS/MS. 1-{2-[5-(2-Methoxy-ethoxy)-benzoimidazol-1-yl]-quinolin-8-yl}-piperidin-4-ylamine was incubated in human and dog liver cytosol under the same conditions as a positive control.
Separation of 1-{2-[5-(3-Methyl-oxetan-3-ylmethoxy)-benzoimidazol-1-yl]-quinolin-8-yl}-piperidin-4-ylamine and its metabolites in all samples was accomplished on a Zorbax SB-C18 reverse phase column (5 μm, 4.6×150 mm) at a flow rate of 1.0 mL/min. The mobile phase consisted of 10 mM ammonium formate, pH 3.0, (A) and acetonitrile (B). After injection of the sample, the column was washed with 10% B for 5 minutes followed by resolution of the metabolites with a linear gradient from 10% to 50% B over a 20-minute period. A 5-minute wash with 90% B followed by a 7-minute re-equilibration to 10% B was used between subsequent injections.
All Samples were analyzed by a Finnigan TSQ7000 mass spectrometer operated in positive ion mode with in-line ultraviolet detection (Shimadzu, λ=254 nm). Ionspray voltage and capillary temperature were maintained at 4.5 kV and 350 degrees Celsius, respectively. Product ion spectra were obtained with CID of 35 V; further fragmentation was obtained by conducting product ion scans with source CID of 10 V. Neutral loss scans of 176 (for glucuronide detection) were conducted with CID of 30 V.
The metabolites were initially identified by molecular ion (Q1) scans of the sample mixture. Potential metabolites were characterized by fragmentation of the metabolite molecular ions and comparison of the resulting fragmentation patterns with the 1-{2-[5-(3-Methyl-oxetan-3-ylmethoxy)-benzoimidazol-1-yl]-quinolin-8-yl}-piperidin-4-ylamine product mass spectrum.

Molecules are shown by their SMILES.

Consider `CC1(COc2ccc3c(c2)ncn3-c2ccc3cccc(N4CCC(N)CC4)c3n2)COC1` [1-{2-[5-(3-Methyl-oxetan-3-ylmethoxy)-benzoimidazol-1-yl]-quinolin-8-yl}-piperidin-4-ylamine, reference compound], for which the “Substrate for microsomal epoxide hydrolase” value in data set [1] was “not a substrate”. Moreover, the Excretion in bile entry in data set [2] is on record as “appears to be excreted in bile”. Besides, in data set [3], the “Metabolites in human liver cytosolic incubations” value was “No metabolites were observed”.

Values taken from patent US20100016353A1, “BENZOIMIDAZOLE DERIVATIVES USEFUL AS ANTIPROLIFERATIVE AGENTS” (priority 2004, published 2010).
